For two molecules, inhibition and IC50 results are on record in US20140142185A1, “3-Benzyloxyphenyloxoacetic Acid Compounds for Reducing Uric Acid” (priority 2011, published 2014).

For the experiment, the target named is T1, Human URAT1 (Homo sapiens, UniProt Q96S37).
T1 construct: The full-length hURAT1 cDNA was obtained from the vector pCMV6-XL5 and subcloned into the expression vector pCMV6-Neo
T1 sequence (Q96S37 1-553): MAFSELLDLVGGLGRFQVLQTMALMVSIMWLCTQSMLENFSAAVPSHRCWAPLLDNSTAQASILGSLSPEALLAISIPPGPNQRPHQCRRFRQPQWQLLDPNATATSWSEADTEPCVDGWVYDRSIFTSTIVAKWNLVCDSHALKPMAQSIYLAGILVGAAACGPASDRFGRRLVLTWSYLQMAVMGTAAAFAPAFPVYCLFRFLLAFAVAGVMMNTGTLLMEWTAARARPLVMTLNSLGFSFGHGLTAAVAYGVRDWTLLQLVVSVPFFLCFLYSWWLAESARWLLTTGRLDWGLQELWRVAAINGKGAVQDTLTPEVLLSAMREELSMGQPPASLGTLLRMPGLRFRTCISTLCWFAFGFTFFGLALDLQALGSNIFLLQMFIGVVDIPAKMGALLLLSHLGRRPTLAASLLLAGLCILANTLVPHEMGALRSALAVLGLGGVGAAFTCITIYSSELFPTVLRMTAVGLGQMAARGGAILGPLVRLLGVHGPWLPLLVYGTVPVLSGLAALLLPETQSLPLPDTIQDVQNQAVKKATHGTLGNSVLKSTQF
Nature of the experiment: URAT1 inhibition assay: [8-14C] urate uptake in hURAT1-expressing HEK293 cells. The experiment is classed as cell-based. Conditions: for inhibition at 10 µM: Human URAT1-Expressing HEK293 cells, 50 μM [8-14C] urate, 5 min, read-out: % Inhibition of uric acid uptake. The method, then: An in vitro URAT1 assay is useful for identifying compounds with potential activity in lowering serum uric acid. A suitable assay involves transfection of cells (e.g. human embryonic kidney cells; “HEK”) with a vector encoding human URAT1, followed by determination of the ability of transfected cells to take up radiolabeled uric acid. The activity of compounds as URAT1 inhibitors is evaluated by their ability to block uric acid uptake by transfected cells.
Plasmid vector pCMV6-XL5 containing hURAT1 cDNA (Cat. No. SC125624) and the expression vector pCMV6-Neo (Cat. No. pCMVNEO) were obtained from OriGene Technologies, Inc. The full-length hURAT1 cDNA was obtained from the vector pCMV6-XL5 and subcloned into the expression vector pCMV6-Neo to create the hURAT1 expression plasmid pCMV6-hURAT1. The sequences were verified by automatic DNA sequencing.
Human embryonic kidney 293 (HEK) cells (ATTCC, Cat No. CRL-1573) were cultured in EMEM supplemented with 10% FBS and 2 mM L-glutamine and incubated at 37° C. and 5% CO2. For transfection experiments, cells were plated on 60 mm dishes in 1 ml media per dish. After an 18-24 hour incubation, cells were transfected with plasmid pCMV6-hURAT1 or the expression vector pCMV6-Neo, using the Lipofectin trasfection agent following the manufacturer's instructions (Invitrogen, Cat. No. 18292). After transfection cells were grown in EMEM media for 72 hours and then by adding 1 mg/ml Geneticin (GIBCO, Cat. No 10131) stable transfectants were selected. […]
hURAT1-HEK cells and mock-HEK cells were plated in poly-D-Lysine Cell culture 24 well plates (Becton Dickinson, Cat. No. 354414) at a concentration of 3×10^5 in EMEM medium and incubated overnight. […] The cell lysates were transferred into the scintillation vials containing 1 ml of scintillation fluid (Opti Phase SuperMIX, PerkinElmer, Cat No. 1200-439) and the radioactivity was counted in the Microbeta counter (1450, Wallac Jet, PerkinElmer). […] The radioactivity values obtained for the wells that contained DMSO were taken as 100% uptake of the cells. […]

Regarding `Cc1ccc(C(=O)C(=O)O)cc1OCc1c(C)cccc1C` [Cpd. FF, 2-(3-(2,6-dimethylbenzyloxy)-4-methylphenyl)-2-oxoacetic acid], the inhibition at 10 µM was found to be 87.4%. Moreover, under “uric acid uptake in hURAT1-HEK cells”, the half-inhibitory concentration (IC50) turned out to be 1.28 µM. On to `COc1ccc(C(=O)C(=O)O)cc1OCc1c(C)cccc1C` [Cpd. FG, 2-(3-(2,6-dimethylbenzyloxy)-4-methoxyphenyl)-2-oxoacetic acid], for which the inhibition at 10 µM stood at 67.1%.

As usually defined, the inhibition is the change of the read-out against control, counted positive when it falls. For orientation: IC50 means the point on the concentration scale where inhibition reaches its midpoint. Read a high IC50 as a need for much substance.
